From patent US20070020194A1, “Nasally administered appetite suppressant” (priority 2005, published 2007)
Where “and” joins values, the source holds several entries; their conditions need not be identical. Equal values may be shown once.

Key:
[1] = cited from earlier work
[2] = 70 kg adult; cited from earlier work
[3] = Food intake study, intranasal lidocaine vs saline before a test meal; assay type: in vivo, human
Description: Three males and one female between 23 and 60 years of age with BMI's less than 25 kg/m2 participated in a study of food intake. The subjects presented to the food intake laboratory at noon after an overnight fast except for water from 9 pm the prior night on two occasions a week apart. They had 10 mg (0.5 cc) of lidocaine or 0.5 cc normal saline administered in each nostril 20 minutes before presentation of a meal consisting of fried chicken pieces and water. They were allowed to eat and drink as much or as little as they wished over a 20-minute period, and there were more chicken pieces than they could reasonably be expected to eat at one sitting. The order of the lidocaine and saline was balanced and the study was performed in a double-blind fashion.
The four subjects consumed 15%, 11%, 27% and 33% less on the lidocaine week compared to the placebo week. […] Sibutramine, an obesity drug, gives an 8% weight loss at 6 months and causes a 12% decrease in food intake.

[4] = applied topically; cited from earlier work

Question: Which weight loss ([1]; at 6 months) does the source give for `CC(C)CC(N(C)C)C1(c2ccc(Cl)cc2)CCC1` (centres unmarked) [Sibutramine] here?
Answer: 8%

Question: And the “decrease in food intake” value ([1]; in vivo)?
Answer: 12%

Question: Which results are given for `CCN(CC)CC(=O)Nc1c(C)cccc1C` [lidocaine]?
Answer: maximum safe dosage for topical anesthetic [2]: 500 mg; less food consumed on the lidocaine week compared to the placebo week (individual subjects) ([3]; 10 mg (0.5 cc) lidocaine in each nostril 20 minutes before meal, 20-minute meal of fried chicken pieces, four subjects, BMI less than 25 kg/m2): 15% and 11% and 27% and 33%; overall reduction in food intake ([3]; 10 mg lidocaine per nostril vs saline, four subjects, p<0.02): 21.5%+10.2%; weight loss that might result if the food intake reduction is sustained ([3]; extrapolated from pilot study by comparison with sibutramine): ≤ 14%; duration of anesthesia [4]: 30 to 45 min; time to peak anesthesia [4]: 2 to 5 min
